Several values for one entry are separate records, joined by “and”; a condition that tells them apart may be missing. Equal entries are not always repeated.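 48-hour exposure; five concentrations; linearly interpolated endpoints. GI50 marks 50% less growth. At the TGI there is no net growth.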
Test system: SN12C renal
Assay: inhibition of tumour cell growth, NCI panel, 48 h

Structure (SMILES) | TGI | GI50
COc1ccc2c(-c3cc4ccccc4o3)cc(=O)oc2c1 | > 100 µM | –
O=C(Nc1cc(-c2ccccc2)[nH]n1)c1ccc(Cl)cc1 | > 100 µM | > 100 µM
CCCSc1cc(Cl)nc(N)n1 | > 100 µM | > 100 µM
CN1CCN(Cc2ccc(NC(=O)c3ccc(C(C)(C)C)c(C#Cc4cnc5cccnn45)c3)cc2C(F)(F)F)CC1 | 26.4 µM | 9.62 µM
C=CC(=O)N1CCN(c2ncnc3c(F)c(-c4c(O)cccc4F)c(Cl)cc23)CC1 | 31.3 µM | 13.9 µM
C=CCOc1c(Br)cc(Br)cc1Br | > 100 µM | 30 µM
CC(=O)n1c(-c2ccc(Cl)cc2)nc2c(c1=O)C(c1ccc(Cl)cc1)c1sc3c(Cl)cccc3c1O2 (centres undefined) | 2.56 µM | 0.715 µM
CN(C)CCNC(=O)Nc1c(C#N)[n+]([O-])c2cc(Cl)c(Cl)cc2[n+]1[O-] | > 100 µM | 17.2 µM
COc1ccccc1C(=O)c1ccc2ccccc2c1 | > 100 µM | –
CS(=O)(=O)Nc1ccc(-c2ccc3c(NC(=O)C4CC4)n[nH]c3c2)cc1 | > 25 µM | > 25 µM
C=C1C(=O)O[C@H]2[C@H]1CC/C(COC(=O)c1cc3cc(OC)ccc3[nH]1)=C\CC[C@@]1(C)O[C@@H]21 | 3.52 µM | 1.77 µM
COCC(=O)OC1CCn2c1nc1c2C(=O)C(C)=C(NC(C)=O)C1=O (centres undefined) | 18.9 µM | 4.62 µM
COc1ccc(C2C(C#N)=C(N)OC3=C2CCCc2ccc(F)cc23)cc1OC (centres undefined) | 39.5 µM | 19.7 µM

Test system: OVCAR-3 ovarian
Assay: inhibition of tumour cell growth, NCI panel, 48 h

Structure (SMILES) | TGI | GI50
COc1ccc2c(-c3cc4ccccc4o3)cc(=O)oc2c1 | 30.4 µM | –
O=C(Nc1cc(-c2ccccc2)[nH]n1)c1ccc(Cl)cc1 | > 100 µM | > 100 µM
CCCSc1cc(Cl)nc(N)n1 | > 100 µM | > 100 µM
CN1CCN(Cc2ccc(NC(=O)c3ccc(C(C)(C)C)c(C#Cc4cnc5cccnn45)c3)cc2C(F)(F)F)CC1 | 12.2 µM | 3.55 µM
C=CC(=O)N1CCN(c2ncnc3c(F)c(-c4c(O)cccc4F)c(Cl)cc23)CC1 | 23.5 µM | 9.02 µM
C=CCOc1c(Br)cc(Br)cc1Br | 17.2 µM | 3.12 µM
CC(=O)n1c(-c2ccc(Cl)cc2)nc2c(c1=O)C(c1ccc(Cl)cc1)c1sc3c(Cl)cccc3c1O2 (centres undefined) | 1.5 µM | 0.402 µM
CN(C)CCNC(=O)Nc1c(C#N)[n+]([O-])c2cc(Cl)c(Cl)cc2[n+]1[O-] | 57 µM | 21.4 µM
COc1ccccc1C(=O)c1ccc2ccccc2c1 | 39.6 µM | –
CS(=O)(=O)Nc1ccc(-c2ccc3c(NC(=O)C4CC4)n[nH]c3c2)cc1 | > 25 µM | > 21.2 µM
C=C1C(=O)O[C@H]2[C@H]1CC/C(COC(=O)c1cc3cc(OC)ccc3[nH]1)=C\CC[C@@]1(C)O[C@@H]21 | 2.15 µM | 0.935 µM
COCC(=O)OC1CCn2c1nc1c2C(=O)C(C)=C(NC(C)=O)C1=O (centres undefined) | 5.23 µM and 4.82 µM | 1.9 µM
COc1ccc(C2C(C#N)=C(N)OC3=C2CCCc2ccc(F)cc23)cc1OC (centres undefined) | 46.2 µM | 19.3 µM

Test system: U251 CNS
Assay: inhibition of tumour cell growth, NCI panel, 48 h

Structure (SMILES) | TGI | GI50
COc1ccc2c(-c3cc4ccccc4o3)cc(=O)oc2c1 | > 96 µM | –
O=C(Nc1cc(-c2ccccc2)[nH]n1)c1ccc(Cl)cc1 | > 100 µM | 9.42 µM
CCCSc1cc(Cl)nc(N)n1 | > 100 µM | > 100 µM
CN1CCN(Cc2ccc(NC(=O)c3ccc(C(C)(C)C)c(C#Cc4cnc5cccnn45)c3)cc2C(F)(F)F)CC1 | 3.62 µM | 1.97 µM
C=CC(=O)N1CCN(c2ncnc3c(F)c(-c4c(O)cccc4F)c(Cl)cc23)CC1 | 46.8 µM | 13.2 µM
C=CCOc1c(Br)cc(Br)cc1Br | > 100 µM | 8.28 µM
CC(=O)n1c(-c2ccc(Cl)cc2)nc2c(c1=O)C(c1ccc(Cl)cc1)c1sc3c(Cl)cccc3c1O2 (centres undefined) | 1.67 µM | 0.446 µM
CN(C)CCNC(=O)Nc1c(C#N)[n+]([O-])c2cc(Cl)c(Cl)cc2[n+]1[O-] | > 100 µM | 14.5 µM
COc1ccccc1C(=O)c1ccc2ccccc2c1 | > 100 µM | –
CS(=O)(=O)Nc1ccc(-c2ccc3c(NC(=O)C4CC4)n[nH]c3c2)cc1 | > 25 µM | > 25 µM
C=C1C(=O)O[C@H]2[C@H]1CC/C(COC(=O)c1cc3cc(OC)ccc3[nH]1)=C\CC[C@@]1(C)O[C@@H]21 | 2.95 µM | 1.6 µM
COCC(=O)OC1CCn2c1nc1c2C(=O)C(C)=C(NC(C)=O)C1=O (centres undefined) | 17.4 µM | 4.36 µM
COc1ccc(C2C(C#N)=C(N)OC3=C2CCCc2ccc(F)cc23)cc1OC (centres undefined) | 35.9 µM | 17 µM

Test system: SF-539 CNS
Assay: inhibition of tumour cell growth, NCI panel, 48 h

Structure (SMILES) | TGI | GI50
COc1ccc2c(-c3cc4ccccc4o3)cc(=O)oc2c1 | 49.6 µM | –
O=C(Nc1cc(-c2ccccc2)[nH]n1)c1ccc(Cl)cc1 | > 100 µM | 17.9 µM
CCCSc1cc(Cl)nc(N)n1 | > 100 µM | > 100 µM
CN1CCN(Cc2ccc(NC(=O)c3ccc(C(C)(C)C)c(C#Cc4cnc5cccnn45)c3)cc2C(F)(F)F)CC1 | 4.14 µM | 2.03 µM
C=CC(=O)N1CCN(c2ncnc3c(F)c(-c4c(O)cccc4F)c(Cl)cc23)CC1 | 20.5 µM | 7.48 µM
C=CCOc1c(Br)cc(Br)cc1Br | > 100 µM | 20.9 µM
CC(=O)n1c(-c2ccc(Cl)cc2)nc2c(c1=O)C(c1ccc(Cl)cc1)c1sc3c(Cl)cccc3c1O2 (centres undefined) | 1.12 µM | 0.296 µM
CN(C)CCNC(=O)Nc1c(C#N)[n+]([O-])c2cc(Cl)c(Cl)cc2[n+]1[O-] | 47.3 µM | 18.9 µM
COc1ccccc1C(=O)c1ccc2ccccc2c1 | 25.8 µM | –
CS(=O)(=O)Nc1ccc(-c2ccc3c(NC(=O)C4CC4)n[nH]c3c2)cc1 | > 25 µM | > 20 µM
C=C1C(=O)O[C@H]2[C@H]1CC/C(COC(=O)c1cc3cc(OC)ccc3[nH]1)=C\CC[C@@]1(C)O[C@@H]21 | 2.25 µM | 1.02 µM
COCC(=O)OC1CCn2c1nc1c2C(=O)C(C)=C(NC(C)=O)C1=O (centres undefined) | 3.85 µM and 9.32 µM | 2.14 µM
COc1ccc(C2C(C#N)=C(N)OC3=C2CCCc2ccc(F)cc23)cc1OC (centres undefined) | 32.2 µM | 16.6 µM

Test system: DU-145 prostate
Assay: inhibition of tumour cell growth, NCI panel, 48 h

Structure (SMILES) | TGI | GI50
COc1ccc2c(-c3cc4ccccc4o3)cc(=O)oc2c1 | > 100 µM | –
O=C(Nc1cc(-c2ccccc2)[nH]n1)c1ccc(Cl)cc1 | > 100 µM | 6.96 µM
CCCSc1cc(Cl)nc(N)n1 | > 100 µM | > 100 µM
CN1CCN(Cc2ccc(NC(=O)c3ccc(C(C)(C)C)c(C#Cc4cnc5cccnn45)c3)cc2C(F)(F)F)CC1 | 3.39 µM | 1.89 µM
C=CC(=O)N1CCN(c2ncnc3c(F)c(-c4c(O)cccc4F)c(Cl)cc23)CC1 | 23.6 µM | 10.6 µM
C=CCOc1c(Br)cc(Br)cc1Br | > 100 µM | 58.5 µM
CC(=O)n1c(-c2ccc(Cl)cc2)nc2c(c1=O)C(c1ccc(Cl)cc1)c1sc3c(Cl)cccc3c1O2 (centres undefined) | 2.38 µM | 0.499 µM
CN(C)CCNC(=O)Nc1c(C#N)[n+]([O-])c2cc(Cl)c(Cl)cc2[n+]1[O-] | > 100 µM | 25.4 µM
COc1ccccc1C(=O)c1ccc2ccccc2c1 | > 100 µM | –
CS(=O)(=O)Nc1ccc(-c2ccc3c(NC(=O)C4CC4)n[nH]c3c2)cc1 | > 25 µM | > 23.8 µM
C=C1C(=O)O[C@H]2[C@H]1CC/C(COC(=O)c1cc3cc(OC)ccc3[nH]1)=C\CC[C@@]1(C)O[C@@H]21 | 2.19 µM | 1.03 µM
COCC(=O)OC1CCn2c1nc1c2C(=O)C(C)=C(NC(C)=O)C1=O (centres undefined) | 22.2 µM | –
COc1ccc(C2C(C#N)=C(N)OC3=C2CCCc2ccc(F)cc23)cc1OC (centres undefined) | 36.9 µM | 19.1 µM

From PubChem BioAssay (NCI)
